The values below come from patent publication US6242443A, “1,2,4-benzothiadiazine derivatives, their preparation and use” (Novo Nordisk AIS, priority 1996, dated 2001).

In one assay the test system is rat aorta rings. As to the kind of experiment: Relaxation of rat aorta rings (phenylephrine-contracted). The format is cell-based. The settings on record: rat thoracic aorta rings contracted with phenylephrine to 80% of maximum response, cumulative addition; read-out: EC50 (concentration required to evoke a 50% relaxation of the tissue). The procedure: The activity of the compounds as potassium channel openers can also be measured as relaxation of rat aortas rings according to the following procedure:
A section of rat thoracic aorta between the aortic arch and the diaphragm was dissected out and mounted as ring preparations as described by Taylor P. D. et al, Brit J. Pharmacol, 111, 42-48 (1994).
After a 45 min. equilibration period under a tension of 2 g, the preparations were contracted to achieve 80% of the maximum response using the required concentration of phenylephrine. When the phenylephrine response reached a plateau, potential vasodilatory agents were added cumulatively to the bath in small volumes using half log molar increments at 2 min intervals. Relaxation was expressed at the percentage of the contracted tension. The potency of a compound was expressed as the concentration required to evoke a 50% relaxation of the tissue.
Turning to `CC(C)NC1=NS(=O)(=O)c2ccc(C(F)(F)F)cc2N1` [Example 50, 3-Isopropylamino-6-trifluoromethyl-4H-1,2,4-benzothiadiazine 1,1-dioxide], the EC50 came out at 5.2 µM.
Take `C[C@H](NC1=NS(=O)(=O)c2cc(I)ccc2N1)c1ccccc1` [Example 88, 7-Iodo-3-(S)-(1-phenylethyl)amino-4H-1,2,4-benzothiadiazine 1,1-dioxide]: the EC50 turned out to be 32.7 µM.
With `CCNC1=NS(=O)(=O)c2cc(Br)ccc2N1` [Example 94, 7-Bromo-3-ethylamino-4H-1,2,4-benzothiadiazine 1,1-dioxide], the EC50 was 4.8 µM.
Still for that read-out and setting: the result for `CCNC1=NS(=O)(=O)c2cc(F)ccc2N1` [Example 101, 3-Ethylamino-7-fluoro-4H-1,2,4-benzothiadiazine 1,1-dioxide] reads 14.1 µM.

Another assay deals with RIN 5F cells. Put plainly: 86Rb+ efflux from a β-cell line (increased Rb-efflux in RIN 5F cells). It counts as cell-based. The settings on record: 1 h at room temperature, pH 7.1. The procedure:
^86 Rb^+ efflux from a β-cell line
The RIN 5F cell line was grown in RPMI 1640 with Glutamax I, supplemented with 10% fetal calf serum (from GibcoBRL, Scotland, UK) and maintained in an atmosphere of 5% CO2 /95% air at 37° C. The cells were detached with a Trypsin-EDTA solution (from GibcoBRL, Scotland, UK), resuspended in medium, added 1 mCi/ml ^86 Rb^+ and replated into microtiter plates (96 well cluster 3596, sterile, from Costar Corporation,MA, USA) at a density of 50000 cells/well in 100 μl/well, and grown 24 hours before use in assay.
The plates were washed 4 times with Ringer buffer (150 mM NaCl, 10 mM Hepes, 3.0 mM KCl, 1.0 mM CaCl2, 20 mM Sucrose, pH 7.1). Eighty μl Ringer buffer and 1 μl control- or test compound dissolved in DMSO was added. After incubation 1 h at room temperature with a lid, 50 μl of the supernatant was transferred to PicoPlates (Packard Instrument Company, CT, USA) and 100 μl MicroScint40 (Packard Instrument Company, CT, USA) added. The plates were counted in TopCount (Packard Instrument Company, CT, USA) for 1 min/well at the ^32 P program.
The calculation of EC50 and Emax was done by SlideWrite (Advanced Graphics Software, Inc., CA, USA) using a four parameter logistic curve: y=(a-d)/(1+(x/c)^b)+d, where a=the activity estimated at concentration zero, b=a slope factor, c=the concentration at the middle of the curve and, d=the activity estimated at infinite concentration. EC50 =c and Emax =d, when the curve is turned of at infinite concentrations.
For the compound `CC(C)C(C)NC1=NS(=O)(=O)c2cc(Cl)c(Cl)cc2N1` (stereo not shown) [Example 26, 6,7-Dichloro-3-(1,2-dimethylpropyl)amino-4H-1,2,4-benzothiadiazine 1,1-dioxide], the EC50 was 12.9 µM.
In the case of `O=S1(=O)N=C(NCC2CCCCC2)Nc2ccc(Cl)cc21` [Example 66, 7-Chloro-3-(cyclohexylmethyl)amino-4H-1,2,4-benzothiadiazine 1,1-dioxide], the EC50 was found to be 9.4 µM.
The same measure, in the same setting: then `O=S1(=O)N=C(NCc2ccccc2)Nc2ccc(I)cc21` [Example 86, 3-Benzylamino-7-iodo-4H-1,2,4-benzothiadiazine 1,1-dioxide], with 13 µM.
